Test systems include SK-MEL-28 melanoma; SR leukemia; NCI-H460 lung; ACHN renal; 786-0 renal; RXF 393 renal; SF-295 CNS; CAKI-1 renal; RPMI-8226 leukemia; DU-145 prostate; MDA-N.
Holding throughout (experiment): NCI tumour cell line growth inhibition, 48 h

Molecules are shown by their SMILES.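 Five compound concentrations were applied to cells in 96-well plates for 48 hours; endpoints were derived by simple linear interpolation of the resulting dose-response curve. GI50 is the concentration that inhibits growth by half. TGI denotes the concentration required for complete inhibition of growth.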

As for `CCOc1cc2c(cc1OC)c[n+](C)c1c3cc(OC)c(OC)cc3ccc21`, the TGI in the assay on SK-MEL-28 melanoma is greater than 100 µM; with SR leukemia it was greater than 100 µM; with NCI-H460 lung, greater than 100 µM; in the assay with ACHN renal, greater than 100 µM; in the assay with 786-0 renal, greater than 56.6 µM; in the assay on RXF 393 renal, 73.5 µM. The TGI in the assay with SF-295 CNS, with CAKI-1 renal and in the assay with RPMI-8226 leukemia was greater than 100 µM throughout.
Consider `Cc1c2ccccc2c(=O)n2c(-c3ccccn3)cccc12`, for which the TGI with SK-MEL-28 melanoma, in the assay on SR leukemia, with NCI-H460 lung, with ACHN renal, in the assay on 786-0 renal and in the assay with RXF 393 renal was greater than 100 µM each time. In addition, the TGI in the assay with SF-295 CNS, with CAKI-1 renal and in the assay with RPMI-8226 leukemia was greater than 100 µM in each case.
As to `CC(C)NC1CCCCC2c3ccccc3C12O` (stereo not given), the TGI with SK-MEL-28 melanoma, in the assay on SR leukemia, with NCI-H460 lung, in the assay with ACHN renal, in the assay with 786-0 renal and in the assay on RXF 393 renal was greater than 100 µM throughout. For the same molecule, the TGI with SF-295 CNS and with RPMI-8226 leukemia was greater than 100 µM in each case.
For `CC(C)C(Sc1nc(-c2ccccc2)c(-c2ccccc2)[nH]1)C(=O)N/N=C/c1ccc(Cl)cc1` (stereo not given), the TGI is 45.2 µM in the assay on SK-MEL-28 melanoma; greater than 100 µM with SR leukemia; 52.8 µM in the assay on NCI-H460 lung; greater than 100 µM in the assay on ACHN renal; 40.8 µM in the assay with 786-0 renal; 47.5 µM in the assay with SF-295 CNS. In addition, the TGI in the assay on CAKI-1 renal was 69.9 µM; in the assay on RPMI-8226 leukemia it was 65.4 µM.
Take `C[C@]12CC[C@H]3[C@@H](CC=C4C[C@@H](N5CCCC5)CC[C@@]43C)[C@@H]1C/C(=C\c1ccc([N+](=O)[O-])cc1)[C@@H]2O`: the TGI in the assay on SK-MEL-28 melanoma is 28.2 µM; with SR leukemia it was 3.98 µM; in the assay with NCI-H460 lung, greater than 100 µM; with ACHN renal it was 29.3 µM; in the assay with 786-0 renal, 17.9 µM; with RXF 393 renal it was 57.8 µM. The TGI with SF-295 CNS was 96.7 µM; in the assay on DU-145 prostate, 34.7 µM; in the assay with CAKI-1 renal, 27.6 µM; in the assay with RPMI-8226 leukemia, 38.5 µM.
As to `O=[N+]([O-])C(/C(Cl)=C(/Cl)N1CCOCC1)=C1\Nc2ccccc2O1`, the TGI in the assay on SK-MEL-28 melanoma, in the assay on NCI-H460 lung, with ACHN renal, in the assay with 786-0 renal, in the assay on SF-295 CNS and in the assay with DU-145 prostate was greater than 100 µM throughout. Also, the TGI in the assay with CAKI-1 renal and in the assay with RPMI-8226 leukemia was greater than 100 µM throughout.
On to `CN(C)CC1CCC/C(=C\c2ccc(Cl)c(Cl)c2)C1=O` (stereo not given), for which the TGI with SK-MEL-28 melanoma stood at 11.4 µM; with NCI-H460 lung it was 28 µM; with ACHN renal, 15.1 µM; with MDA-N, 12.7 µM; with 786-0 renal it was 3.42 µM; with SF-295 CNS, 25.8 µM. Moreover, the values for the TGI in the assay on DU-145 prostate, in the assay with CAKI-1 renal and in the assay on RPMI-8226 leukemia were 23 µM, 7.7 µM and 1.03 µM, respectively.
For the molecule `Cc1cc(C)c2c(-c3ccccc3)cc(=O)[nH]c2c1`, the TGI in the assay with SK-MEL-28 melanoma, in the assay on NCI-H460 lung, in the assay with ACHN renal, in the assay with MDA-N, with 786-0 renal and in the assay on RXF 393 renal was greater than 100 µM throughout. The TGI in the assay on SF-295 CNS, in the assay with DU-145 prostate and with RPMI-8226 leukemia was greater than 100 µM each time.
With `NC(=O)N/N=C(\Cc1cc(=O)oc2cc(O)ccc12)C(=O)Nc1ccccc1C(N)=O`, the TGI with SK-MEL-28 melanoma, in the assay with NCI-H460 lung, in the assay on ACHN renal, in the assay with MDA-N, in the assay with 786-0 renal and in the assay on RXF 393 renal was greater than 100 µM in each case. For the same molecule, the TGI in the assay on SF-295 CNS, in the assay on DU-145 prostate and in the assay with CAKI-1 renal was greater than 100 µM each time.
As to `CN(C)c1ccc(-c2c(C#N)c(-c3ccccc3)n(NS(=O)(=O)c3ccccc3)c(=O)c2C#N)cc1`, the TGI with SK-MEL-28 melanoma, in the assay on NCI-H460 lung, with ACHN renal, with MDA-N, in the assay on 786-0 renal and in the assay on RXF 393 renal was greater than 100 µM each time. Also, the TGI was greater than 100 µM in the assay on SF-295 CNS, greater than 100 µM in the assay with CAKI-1 renal and 48.6 µM in the assay with RPMI-8226 leukemia.
Consider `O=c1[nH]c2c(C(F)(F)F)c(Cl)c(-c3ccccc3)nc2o1`, for which the TGI in the assay on SK-MEL-28 melanoma is greater than 100 µM; in the assay on NCI-H460 lung, 69.8 µM; in the assay on ACHN renal, greater than 100 µM; with MDA-N it was 44.8 µM; in the assay with 786-0 renal, greater than 100 µM; with RXF 393 renal, 75.3 µM. Besides, the TGI in the assay on SF-295 CNS, in the assay on DU-145 prostate and with CAKI-1 renal was greater than 100 µM in each case.
In the case of `COC(=O)[C@H](Cc1ccccc1)NC(=O)N(CCN(CCC#N)C(=O)N[C@H](C(=O)OC)C(C)C)c1ccccc1`, the TGI in the assay on SK-MEL-28 melanoma, in the assay with ACHN renal, in the assay with MDA-N, in the assay on 786-0 renal, with RXF 393 renal and in the assay with SF-295 CNS was greater than 100 µM each time. For the same molecule, the TGI with DU-145 prostate, in the assay with CAKI-1 renal and with RPMI-8226 leukemia was greater than 100 µM each time.
Turning to `Cc1c2ccccc2c(/C=N/NC(=O)CSCC(=O)N/N=C/c2c3ccccc3c(C)c3ccccc23)c2ccccc12`, the TGI with SK-MEL-28 melanoma was greater than 100 µM; with NCI-H460 lung, greater than 100 µM; in the assay with ACHN renal, greater than 89 µM; in the assay with 786-0 renal, greater than 52.8 µM; in the assay on RXF 393 renal it was 54.9 µM; in the assay with SF-295 CNS it was 49.9 µM. Also, the values for the TGI in the assay with DU-145 prostate, in the assay with CAKI-1 renal and in the assay on RPMI-8226 leukemia were greater than 100 µM, greater than 100 µM and 51.9 µM, respectively.
Take `COc1ccc(-c2nc(-c3nc4cc(Cl)c(Cl)cc4[nH]3)c3ccccn23)cc1`: the GI50 with SR leukemia was 6.26 µM; in the assay with NCI-H460 lung it was 3.01 µM; with RXF 393 renal, 1.76 µM; with CAKI-1 renal it was 3.32 µM; in the assay on RPMI-8226 leukemia, 3.74 µM. Further, the TGI in the assay on SR leukemia is greater than 100 µM; in the assay with NCI-H460 lung, greater than 100 µM; in the assay on RXF 393 renal, 4.26 µM; in the assay on CAKI-1 renal, greater than 100 µM; with RPMI-8226 leukemia, greater than 100 µM.

The values are drawn from PubChem BioAssay (NCI).
